Reference: the supplement of paper PMC10307832

How the values were obtained:
Assay in all cases: relative viability (nuclei count vs DMSO), 5 days (fraction); higher = more cells survive
[1] = compound: Cn1cc(-c2cnn3c(N)c(Br)c([C@@H]4CCCNC4)nc23)cn1 + COc1cc2c(Oc3ccc(NC(=O)C4(C(=O)Nc5ccc(F)cc5)CC4)cc3F)ccnc2cc1OCCCN1CCOCC1 [Foretinib] (partner 0.25 µM)
In short: (§1)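 Dosing by pin tool came one day after lung cancer cell lines were seeded in 1536-well plates, using either one drug or a fixed anchor-drug dose plus five library-drug doses (not always all listed) in √10 steps. After 5 days, nuclei were counted on 4× images. Relative viability is treated-well nuclei count divided by vehicle-well nuclei count, and values are medians of duplicate plates.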

[2] = compound: Cn1cc(-c2cnn3c(N)c(Br)c([C@@H]4CCCNC4)nc23)cn1 + Nc1nc2[nH]cc(CCc3ccc(C(=O)N[C@@H](CCC(=O)O)C(=O)O)cc3)c2c(=O)[nH]1 [Pemetrexed] (partner 0.2 µM)
In short: as §1

[3] = compound: Cn1cc(-c2cnn3c(N)c(Br)c([C@@H]4CCCNC4)nc23)cn1 + Cc1nc(NC(=O)N2CCC[C@H]2C(N)=O)sc1-c1ccnc(C(C)(C)C(F)(F)F)c1 [Alpelisib] (partner 2 µM)
In short: as §1

[4] = compound: Cn1cc(-c2cnn3c(N)c(Br)c([C@@H]4CCCNC4)nc23)cn1 + O=C(c1cc(Cc2n[nH]c(=O)c3ccccc23)ccc1F)N1CCN(C(=O)C2CC2)CC1 [Olaparib] (partner 8 µM)
In short: as §1

Row | Cell Line | relative viability ([1]; first compound 0.05 µM) | relative viability ([1]; first compound 0.1581 µM) | relative viability ([1]; first compound 0.5 µM) | relative viability ([1]; first compound 1.581 µM) | relative viability ([1]; first compound 5 µM) | relative viability ([2]; first compound 0.05 µM) | relative viability ([2]; first compound 0.1581 µM) | relative viability ([2]; first compound 0.5 µM) | relative viability ([2]; first compound 1.581 µM) | relative viability ([2]; first compound 5 µM) | relative viability ([3]; first compound 0.05 µM) | relative viability ([3]; first compound 0.1581 µM) | relative viability ([3]; first compound 0.5 µM) | relative viability ([3]; first compound 1.581 µM) | relative viability ([3]; first compound 5 µM) | relative viability ([4]; first compound 0.05 µM) | relative viability ([4]; first compound 0.1581 µM) | relative viability ([4]; first compound 0.5 µM) | relative viability ([4]; first compound 1.581 µM) | relative viability ([4]; first compound 5 µM)
1 | NCI-H838 | 1.1 | 1.2 | 1.01 | 1.11 | 0.965 | 0.229 | 0.168 | 0.175 | 0.17 | 0.151 | 1.08 | 1.16 | 0.94 | 0.784 | 1.02 | 0.79 | 0.911 | 0.797 | 0.611 | 0.648
2 | NCI-H1437 | 1.24 | 1.4 | 1.41 | 1.32 | 1.19 | 0.294 | 0.226 | 0.248 | 0.172 | 0.194 | 1.05 | 1.02 | 0.795 | 0.576 | 0.761 | 0.664 | 0.726 | 0.71 | 0.646 | 0.595
3 | NCI-H2170 | 1.02 | 0.934 | 0.963 | 1.02 | 1.1 | 0.268 | 0.258 | 0.26 | 0.256 | 0.223 | 0.865 | 0.764 | 0.654 | 0.705 | 0.88 | 0.605 | 0.588 | 0.649 | 0.523 | 0.555
4 | LCLC-103H | 0.72 | 0.848 | 0.746 | 0.674 | 0.657 | 0.539 | 0.463 | 0.482 | 0.428 | 0.298 | 0.957 | 0.962 | 0.867 | 1.05 | 0.847 | 0.842 | 0.804 | 0.77 | 0.746 | 0.711
5 | NCI-H441 | 0.99 | 1.38 | 1.13 | 0.957 | 0.725 | 0.261 | 0.283 | 0.254 | 0.277 | 0.25 | 0.859 | 1.15 | 0.856 |  | 0.852 | 0.672 | 0.697 | 0.494 | 0.37 | 0.43
6 | SK-LU-1 | 0.819 | 0.709 | 0.485 | 0.28 | 0.211 | 0.955 | 0.612 | 0.536 | 0.321 | 0.227 | 1.19 |  | 0.463 | 0.339 | 0.248 | 0.515 | 0.308 | 0.31 | 0.246 | 0.226
7 | BEN | 0.689 | 0.535 | 0.563 | 0.763 | 0.514 | 0.763 | 0.825 | 0.719 | 0.708 | 0.616 | 0.891 | 1.15 | 1.05 | 0.869 | 0.778 | 1.14 | 1.12 | 1.17 | 1.01 | 0.905
8 | LC-2-ad | 0.878 | 0.999 | 1.09 | 0.938 | 0.908 | 0.293 | 0.295 | 0.265 | 0.25 | 0.239 | 0.873 | 1.04 | 0.837 | 0.917 | 0.838 | 0.753 | 0.686 | 0.648 | 0.727 | 0.726
9 | COR-L23 | 1.07 | 1.13 | 1.08 | 0.907 | 0.439 | 0.196 | 0.178 | 0.178 | 0.186 | 0.139 | 0.768 | 1.09 | 0.981 | 0.589 | 0.306 | 0.38 | 0.302 | 0.3 | 0.249 | 0.168
10 | RERF-LC-KJ | 0.98 | 0.881 | 0.865 | 0.727 | 0.86 | 0.459 | 0.476 | 0.477 | 0.422 | 0.478 | 0.849 | 0.846 | 0.892 | 0.708 | 0.717 | 1.05 | 0.996 | 0.869 | 0.762 | 0.662
11 | NCI-H1915 | 1.18 | 1.15 | 1.09 | 1.15 | 1.09 | 0.545 | 0.435 | 0.422 | 0.372 | 0.358 | 1.01 | 1.08 | 1.03 | 1.08 | 1.1 | 0.312 | 0.268 | 0.299 | 0.261 | 0.236
12 | NCI-H596 | 0.871 | 0.797 | 0.778 | 0.83 | 0.674 | 0.481 | 0.462 | 0.534 | 0.371 | 0.326 | 0.939 | 0.498 | 0.47 | 0.494 | 0.478 | 0.633 | 0.596 | 0.622 | 0.655 | 0.621
13 | NCI-H2009 | 1.24 | 1.32 | 1.05 | 1.16 | 1.14 | 1.01 | 1.02 | 0.99 | 0.895 | 0.683 | 1.17 | 1.25 | 1.09 | 1.09 | 0.849 | 0.685 | 0.749 | 0.714 | 0.872 | 0.595
14 | NCI-H2126 | 1.2 | 1.3 | 1.11 | 1.02 | 1.53 | 0.662 | 0.756 | 0.753 | 0.566 | 0.454 | 0.824 | 0.788 | 0.768 | 0.729 | 0.757 | 0.965 | 0.923 | 0.887 | 0.792 | 0.923
15 | LXF-289 | 0.996 | 1.02 | 1 | 0.94 | 1.03 | 0.985 | 0.953 | 0.823 | 0.779 | 0.645 | 1.08 | 1.14 | 1.01 | 1.01 | 1.06 | 1.17 | 1.27 | 1.04 | 1.17 | 1.31
16 | PC-14 | 0.974 | 1.04 | 0.933 | 0.903 | 0.53 | 0.13 | 0.1 | 0.102 | 0.089 | 0.0648 | 0.939 | 1.14 | 0.883 | 0.858 | 0.485 | 0.211 | 0.213 | 0.222 | 0.19 | 0.125
17 | HOP-62 | 1.17 | 1.16 | 1.06 | 1 | 0.985 | 0.309 | 0.252 | 0.307 | 0.22 | 0.203 | 1.1 | 0.815 | 0.997 | 0.649 | 1.19 | 0.321 | 0.262 | 0.208 | 0.241 | 0.199
18 | NCI-H358 | 0.685 | 0.768 | 0.654 | 0.59 | 0.628 | 0.177 | 0.164 | 0.162 | 0.166 | 0.129 | 0.957 | 0.766 | 0.852 | 0.518 | 0.78 | 0.675 | 0.643 | 0.598 | 0.372 | 0.414
19 | SK-MES-1 | 0.909 | 1.04 | 0.946 | 0.867 | 0.566 | 1.05 | 0.755 | 0.651 | 0.351 | 0.258 | 1.01 | 1.03 | 0.94 | 0.763 | 0.592 | 0.879 | 0.596 | 0.441 | 0.34 | 0.2
20 | NCI-H1666 | 0.936 | 1.05 | 0.888 | 1.05 | 0.919 | 0.837 | 0.826 | 0.749 | 0.63 | 0.658 | 1.02 | 1.01 | 0.853 | 0.807 | 0.785 | 0.777 | 0.797 | 0.7 | 0.716 | 0.741
21 | NCI-H1355 | 1.05 | 1.21 | 0.967 | 0.89 | 0.955 | 0.978 | 1.16 | 1.11 | 1.08 | 0.88 | 0.797 | 0.875 | 0.819 | 0.849 | 0.825 | 0.811 | 0.89 | 0.788 | 0.795 | 0.69
22 | HCC-827 | 1.09 | 1.11 | 1.06 | 1.02 | 1.02 | 0.269 | 0.202 | 0.249 | 0.228 | 0.187 | 0.992 | 1.04 | 1.03 | 1.06 | 1.06 | 0.707 | 0.622 | 0.766 | 0.628 | 0.339
23 | HARA | 1.07 | 1.05 | 0.706 | 0.798 | 0.207 | 0.228 | 0.213 | 0.223 | 0.141 | 0.141 | 0.875 | 0.701 | 0.792 | 0.806 | 0.619 | 0.758 | 0.856 | 0.784 | 0.442 | 0.229
24 | HCC-366 | 0.967 | 0.887 | 0.93 | 0.855 | 0.865 | 0.166 | 0.108 | 0.128 | 0.0814 | 0.0667 | 0.439 | 0.539 | 0.493 | 0.368 | 0.156 | 0.392 | 0.372 | 0.296 | 0.229 | 0.137
25 | NCI-H322M | 0.91 | 0.62 | 0.854 | 0.563 | 0.297 | 0.602 | 0.548 | 0.561 | 0.49 | 0.363 | 0.765 | 0.799 | 0.863 | 0.756 | 0.678 | 0.323 | 0.704 | 0.775 | 0.635 | 0.418
26 | NCI-H2347 | 0.789 | 0.877 | 0.815 | 0.593 | 0.724 | 0.408 | 0.394 | 0.418 | 0.502 | 0.338 | 0.974 | 1.19 | 0.959 | 0.957 | 0.812 | 0.626 | 0.695 | 0.53 | 0.629 | 0.611
27 | NCI-H1975 | 0.965 | 0.995 | 0.738 | 0.807 | 0.884 | 0.304 | 0.25 | 0.249 | 0.261 | 0.189 | 0.685 | 0.681 | 0.655 | 0.404 | 0.525 | 0.841 | 0.792 | 0.7 | 0.581 | 0.708
